This assay addresses T1, PPARα (Homo sapiens, UniProt Q07869).
T1 sequence (Q07869 178-468): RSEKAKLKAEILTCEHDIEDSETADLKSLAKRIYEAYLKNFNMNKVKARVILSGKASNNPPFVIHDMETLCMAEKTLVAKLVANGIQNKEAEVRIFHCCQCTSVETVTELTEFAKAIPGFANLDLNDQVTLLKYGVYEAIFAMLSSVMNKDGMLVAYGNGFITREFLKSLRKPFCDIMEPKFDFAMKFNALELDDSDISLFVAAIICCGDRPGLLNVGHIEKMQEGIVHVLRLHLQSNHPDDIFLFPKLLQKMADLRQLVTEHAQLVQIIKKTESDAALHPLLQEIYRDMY
In words: HEK293 cell culture luciferase reporter assay, hPPARα. Background: In a reporter assay the amount or activity of a reporter protein is the signal.

pEC50: −log10 of the molar value.

By pEC50 is commonly meant the negative decadic logarithm of the EC50, by convention in mol/L. A high value points to a small EC50.

Turning to `COC1=C(OC)C(=O)C(CCCCCCCCCCO)=C(C)C1=O` [Idebenone, 2-(10-hydroxydecyl)-5,6-dimethoxy-3-methyl-2,5-cyclohexadiene-1,4-dione], the negative logarithm of the EC50 (pEC50) was 5.52. Further, the “Maximum activation level versus full agonist, PPARα” value (HEK293, full agonist GW7647) is “significantly lower than those obtained using the full agonists”.

Values taken from patent US9770421B2, “Uses for idebenone and related benzoquinones in metabolic disorders and other PPAR α/γ related diseases and conditions” (INDANIO BIOSCIENCE INC., priority 2013, dated 2017).
